Drawing on patent EP0991637B1, “BENZO(5,6)CYCLOHEPTA(1,2-B)PYRIDINE DERIVATIVES AS FARNESYL PROTEIN TRANSFERASE INHIBITORS” (SCHERING CORPORATION, priority 1997, dated 1998), this text covers IC50 for 17 compounds.

Test [1] deals with COS Cell. In words: COS Cell IC50 (Cell-Based Assay), procedure of WO 95/10516. Conditions: range stated for the whole group of compounds. On the procedure:
FPT IC50 (inhibition of farnesyl protein transferase, in vitro enzyme assay) and COS Cell IC50 (Cell-Based Assay) were determined following the assay procedures described in WO 95/10516, published April 20, 1995. GGPT IC50 (inhibition of geranylgeranyl protein transferase, in vitro enzyme assay), Cell Mat Assay, and anti-tumor activity (in vivo anti-tumor studies) could be determined by the assay procedures described in WO 95/10516. The disclosure of WO 95/10516 is incorporated herein by reference thereto.

Test [2] has as its system Human tumor cells. In words: Soft Agar Assay (anchorage-independent growth, colony outgrowth, MTT staining). The format is cell-based. The conditions noted are these: 0.3% agarose over 0.6% agarose, 10-16 days at 37°C under 5% CO2. On the procedure:
Anchorage-independent growth is a characteristic of tumorigenic cell lines. Human tumor cells are suspended in growth medium containing 0.3% agarose and an indicated concentration of a farnesyl transferase inhibitor. The solution is overlayed onto growth medium solidified with 0.6% agarose containing the same concentration of farnesyl transferase inhibitor as the top layer. After the top layer is solidified, plates are incubated for 10-16 days at 37°C under 5% CO2 to allow colony outgrowth. After incubation, the colonies are stained by overlaying the agar with a solution of MTT (3-[4,5-dimethyl-thiazol-2-yl]-2,5-diphenyltetrazolium bromide, Thiazolyl blue) (1 mg/mL in PBS). Colonies can be counted and the IC50's can be determined.

What is called IC50 is the concentration that inhibits the measured activity by half. For `NC(=O)[C@H]1C[C@@H]1C(=O)N1CCC([C@H]2c3ncc(Br)cc3CCc3cc(Cl)cc(Br)c32)CC1` [Compound 55.0, Trans-2(S)-[[4-(3,10-dibromo-8-chloro-6,11-dihydro-5H-benzo[5,6]cyclohepta[1,2-b]pyridin-11(R)-yl)-1-piperidinyl]carbonyl]-(S)-cyclopropanecarboxamide], in test [1], the IC50 lay within 10 to 500 nM.
Same read-out and setting: the result for `O=C(O)Cc1ccc(CC(=O)N2CCC([C@H]3c4ncc(Br)cc4CCc4cc(Cl)cc(Br)c43)CC2)cc1` [Example 3] reads 10 to 500 nM.
Same read-out and setting: then `O=C(O)Cc1cccc(CC(=O)N2CCC([C@H]3c4ncc(Br)cc4CCc4cc(Cl)cc(Br)c43)CC2)c1` [Example 4], with 10 to 500 nM.
As to `CCOC(=O)C1CCC(CC(=O)N2CCC([C@H]3c4ncc(Br)cc4CCc4cc(Cl)cc(Br)c43)CC2)CC1` (stereo partly shown) [Example 8], the IC50 is 10 to 500 nM in test [1] and greater than 500 nM in test [2].
With `O=C(O)C1CCC(CC(=O)N2CCC([C@H]3c4ncc(Br)cc4CCc4cc(Cl)cc(Br)c43)CC2)CC1` (stereo partly shown) [Example 12], the IC50 in test [1] was 10 to 500 nM.
In test [1], `O=C(O)CC1CCC(CC(=O)N2CCC([C@H]3c4ncc(Br)cc4CCc4cc(Cl)cc(Br)c43)CC2)CC1` (stereo partly shown) [Example 13] registered an IC50 of 10 to 500 nM.
In the case of `O=C(O)C=C1CCC(=CC(=O)N2CCC([C@H]3c4ncc(Br)cc4CCc4cc(Cl)cc(Br)c43)CC2)CC1` [Example 14], the IC50 is 10 to 500 nM in test [1] and greater than 500 nM in test [2].
Compound `NC(=O)Cc1ccc(CC(=O)N2CCC([C@H]3c4ncc(Br)cc4CCc4cc(Cl)cc(Br)c43)CC2)cc1` [Example 15] returned an IC50 in test [1] of 10 to 500 nM.
On the same count and under the same terms, then `NC(=O)Cc1cccc(CC(=O)N2CCC([C@H]3c4ncc(Br)cc4CCc4cc(Cl)cc(Br)c43)CC2)c1` [Example 16], with 10 to 500 nM.
On the same count and under the same terms, then `COC(=O)CNC(=O)Cc1cccc(CC(=O)N2CCC([C@H]3c4ncc(Br)cc4CCc4cc(Cl)cc(Br)c43)CC2)c1` [Example 17], with 10 to 500 nM.
Compound `COC(=O)CNC(=O)Cc1ccc(CC(=O)N2CCC([C@H]3c4ncc(Br)cc4CCc4cc(Cl)cc(Br)c43)CC2)cc1` [Example 18] returned an IC50 in test [1] of 10 to 500 nM.
Compound `CONC(=O)Cc1ccc(CC(=O)N2CCC([C@H]3c4ncc(Br)cc4CCc4cc(Cl)cc(Br)c43)CC2)cc1` [Example 19] registered an IC50 in test [1] of 10 to 500 nM.
On the same count and under the same terms, the result for `NC(=O)CC1CCC(CC(=O)N2CCC([C@H]3c4ncc(Br)cc4CCc4cc(Cl)cc(Br)c43)CC2)CC1` (stereo partly shown) [Example 22] reads 10 to 500 nM; that for `NC(=O)C1CCC(CC(=O)N2CCC([C@H]3c4ncc(Br)cc4CCc4cc(Cl)cc(Br)c43)CC2)CC1` (stereo partly shown) [Example 23], 10 to 500 nM.
Still for that read-out and setting: then `COC(=O)Cc1ccc(CC(=O)N2CCC([C@H]3c4ncc(Br)cc4CCc4cc(Cl)cc(Br)c43)CC2)cc1` [Example 34], with 10 to 500 nM; and `O=C(O)C[C@H]1CC[C@@H](C(=O)N2CCC([C@H]3c4ncc(Br)cc4CCc4cc(Cl)cc(Br)c43)CC2)CC1` [Example 35], with 10 to 500 nM.
Still for that read-out and setting: the result for `O=C(O)C[C@H]1CC[C@H](C(=O)N2CCC([C@H]3c4ncc(Br)cc4CCc4cc(Cl)cc(Br)c43)CC2)CC1` [Example 36] reads 10 to 500 nM.
